# Source: ChEMBL document CHEMBL1152029 (1997)
# Activity calls are given as the source filed them. The rule behind the calls is not given here.
# Assays:
# Mus musculus [1] = assay: The percent increase in life span was measured using CD2F1 male mice at 400 mg/kg dose; format: functional
# V79 [2] = assay: The cytotoxicity in vitro against Chinese hamster V-79 cells at concentration of 0.1 mM; NA= Not active; format: functional, cell-based; settings: Cricetulus griseus
# Mus musculus [3] = assay: Mean survival time of compound was measured using CD2F1 male mice in group of ten at 400 mg/kg dose on day 30; format: functional
# V79 [4] = assay: The cytotoxicity in vitro against Chinese hamster V-79 cells at concentration of 0.5 mM; NA= Not active; format: functional, cell-based; settings: Cricetulus griseus
# V79 [5] = assay: The cytotoxicity in vitro against Chinese hamster V-79 cells at concentration of 1 mM; format: functional; settings: Cricetulus griseus, read-out: Survival
# Mus musculus [6] = assay: %Survival of compound was measured using CD2F1 male mice in group of ten at 400 mg/kg dose on day 30; format: functional; settings: 720 h
# [7] = Mean survival time of treated group(T) and Mean survival time of control group(C) was measured using CD2F1 male mice at 400 mg/kg dose; format: functional
# V79 [8] = assay: The in vitro radioprotective effect measured against Chinese hamster V-79 cells at concentration of 0.1 mM; format: functional, Cricetulus griseus
# Mus musculus [9] = assay: Mean survival time of treated group(T) and Mean survival time of control group(C) was measured using CD2F1 male mice at 239 mg/kg dose; format: functional
# Mus musculus [10] = assay: %Survival of compound was measured using CD2F1 male mice in group of ten at 239 mg/kg dose on day 30; format: functional; settings: 720 h
# Mus musculus [11] = assay: Mean survival time of compound was measured using CD2F1 male mice in group of ten at 239 mg/kg dose on day 30; format: functional
# V79 [12] = assay: The cytotoxicity in vitro against Chinese hamster V-79 cells at concentration of 0.5 mM; format: functional; settings: Cricetulus griseus, read-out: Survival
# Mus musculus [13] = assay: The percent increase in life span was measured using CD2F1 male mice at 239 mg/kg dose; format: functional
# V79 [14] = assay: The cytotoxicity in vitro against Chinese hamster V-79 cells at concentration of 0.1 mM; format: functional; settings: Cricetulus griseus, read-out: Survival
# Mus musculus [15] = assay: %Survival of compound was measured using CD2F1 male mice in group of ten at 469 mg/kg dose on day 30; format: functional; settings: 720 h
# Mus musculus [16] = assay: The percent increase in life span was measured using CD2F1 male mice at 469 mg/kg dose; format: functional
# Mus musculus [17] = assay: Mean survival time of compound was measured using CD2F1 male mice in group of ten at 469 mg/kg dose on day 30; format: functional
# [18] = Mean survival time of treated group(T) and Mean survival time of control group(C) was measured using CD2F1 male mice at 469 mg/kg dose; format: functional
Structure (SMILES),ILS at 400 mg/kg (Mus musculus [1]) [%],Survival (V79 [2]),MST (Mus musculus [3]),Survival (V79 [4]),viability at 1000 µM (V79 [5]) [%],survival at 400 mg/kg (Mus musculus [6]) [%],Ratio [7],DMF (V79 [8]),Ratio (Mus musculus [9]),survival at 239 mg/kg (Mus musculus [10]) [%],MST (Mus musculus [11]),viability at 500 µM (V79 [12]) [%],ILS at 239 mg/kg (Mus musculus [13]) [%],viability at 100 µM (V79 [14]) [%],survival at 469 mg/kg (Mus musculus [15]) [%],ILS at 469 mg/kg (Mus musculus [16]) [%],MST (Mus musculus [17]),Ratio [18]
CNCCCNCCCSP(=O)(Oc1ccc(Cl)cc1)SCCCNCCCNC,73,inactive,23,inactive,94,50,2.26,1.65,–,–,–,–,–,–,–,–,–,–
NCCCNCCSP(=O)(O)O [AMIFOSTINE],–,–,–,–,0,–,–,1.4,2.63,80,27,2,130,100,–,–,–,–
CNCCCNCCCSP(=O)(O)O,–,–,–,–,90,–,–,1.5,–,–,–,99,–,93,60,18,20,1.94
